Experimental findings from EPA's ToxValDB 9.5 (doi:10.2903/j.efsa.2009.201r) are described below.

One data set concerns Tagia sp. The settings on record: mortality.
Another data set has as its system Daphnia magna. As to conditions: chronic/long-term; duration: 21 days; growth.
The next data set deals with Apis mellifera. The settings on record: acute; duration: 48 hours; dermal; mortality.
The test system of the next data set is Canidae. As to conditions: chronic; duration: 1 years; oral; Dog Other; body weight.
The subject of another data set is Anas platyrhynchos. The settings on record: oral, mortality.
A further data set has as its system Rattus norvegicus. The settings on record: for NOAEL: chronic.

A value given as a limit tells only on which side of the number the result lay.

Broadly, the NOAEL is the highest dose or exposure tested at which no adverse effect was seen. In the case of `COc1nc(C)nc(NC(=O)NS(=O)(=O)c2ccccc2Cl)n1` [Chlorsulfuron], the LC50 with Tagia sp. (acute, duration: 14 days) was more than 750 mg/kg; in the data set with Anas platyrhynchos (short-term, feed) it was more than 634 mg/kg-day; in the data set with Oncorhynchus mykiss (acute, duration: 96 hours, mortality) it was more than 122 µg/mL. The NOEC in the data set with Tagia sp. (chronic/long-term, duration: 56 days) was 188 mg/kg; in the data set with Daphnia magna, 12 mg/L; in the data set with Oncorhynchus mykiss (chronic/long-term, duration: 77 days, growth) it was 32 mg/L. Moreover, the LD50 in the data set on Apis mellifera was more than 100 µg/piece; in the data set with Anas platyrhynchos (acute, unspecified), more than 5000 mg/kg-day; in the data set with Colinus virginianus (acute, oral, mortality), more than 5000 mg/kg-day; in the data set on Rattus norvegicus (acute, oral, mortality) it was more than 5540 mg/kg-day. Further, the NOAEL was found to be 60.6 mg/kg-day in the data set on Canidae; 75 mg/kg-day in the data set with Rattus norvegicus; 20 mg/kg-day with Rattus norvegicus (duration: 2 years, histopathology: neoplastic). In the data set with Colinus virginianus (reproduction developmental), this molecule registered an NOEL of 28 mg/kg-day.
